Results published in patent publication US20020086835A1, “Use of adenosine deaminase inhibitors to treat systemic inflammatory response syndrome” (priority 2000, published 2002).
“And” between values parts separate entries of the source, which are not always exact repeats. Identical values can stand only once. “Also recorded” adds a separate entry of the source.

Tests used:
adenosine deaminase = biological target: T1, adenosine deaminase (Homo sapiens, UniProt P00813); conditions: FIG. 10 legend; cited from earlier work
T1 sequence (P00813 1-363): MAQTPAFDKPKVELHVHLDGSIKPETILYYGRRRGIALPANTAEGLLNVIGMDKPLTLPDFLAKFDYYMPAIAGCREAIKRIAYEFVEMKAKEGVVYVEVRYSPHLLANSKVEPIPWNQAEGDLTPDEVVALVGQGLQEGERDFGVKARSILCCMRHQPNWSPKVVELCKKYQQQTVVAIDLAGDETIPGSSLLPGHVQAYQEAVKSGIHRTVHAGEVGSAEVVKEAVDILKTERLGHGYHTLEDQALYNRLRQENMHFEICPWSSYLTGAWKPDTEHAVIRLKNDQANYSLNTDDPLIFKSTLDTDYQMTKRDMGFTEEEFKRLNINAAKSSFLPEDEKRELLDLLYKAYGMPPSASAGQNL

adenosine receptors = assay: Regional vascular resistance by radiolabelled microspheres 24 hours after sepsis induction; format: in vivo, rat; conditions: septic rats
Procedure: Systemic vascular responses were examined 24 hours after induction of sepsis in the presence or absence of adenosine receptor blockade in septic and non-septic rats using radiolabelled microspheres. For these experiments, the surgical procedure involving vascular access was modified to include a catheter in the left ventricle of the heart (via the carotid artery), and a catheter in the tail artery (Intramedic PE-50, Baxter) to permit reference blood withdrawal and blood pressure monitoring. Regional blood flows were determined using radiolabelled microspheres. The microspheres ([…] New England Nuclear, Boston), labeled with one of four isotopes (^46Sc, ^85Sr, ^95Nb, ^141Ce), were mixed in 0.9% normal saline with 0.01 % Tween-80 added to prevent aggregation. The microspheres were adjusted to provide a minimum of 400 microspheres per tissue sample, and represented approximately 100,000-250,000 spheres per injection. The specific Isotopes and their order of injection were randomized in each experiment. with each injection representing a volume of 0.4 ml/injectate. The microspheres were sonicated for a minimum of 30 minutes, and vortexed vigorously for at least 30 seconds prior to injection. A reference withdrawal sample was taken at 0.33 ml/min from the tail artery catheter using a mechanical pump (Harvard Model 22). The reference withdrawal was started 10 seconds prior to injecting the isotopes, and continued for 150 seconds. […] Wet weights were obtained and all tissues were counted in a gamma spectrophotometer (Beckman 9000). Gamma activity in the injectate vials was counted prior to the experiments. Actual injected amounts for each isotope were calculated by subtracting any isotope counts remaining in the vials, syringes, and catheters used for injection. Cardiac output (CO) was determined by dividing the total injectate counts for any given isotope by the counts in the reference sample and multiplying by the fixed withdrawal rate of the reference sample. The results for cardiac output are expressed as ml/min. Tissue counts attributed to each isotope were determined after subtracting the overlap of energy spectra from higher energy isotopes (Compton back-scatter). Individual tissue blood flows were determined by dividing the counts obtained in the tissue by the reference withdrawal counts and multiplying by the reference withdrawal rate. Tissue blood flows were then normalized to wet weight was calculated by adding the individual tissue blood flows of the stomach, small intestine, cecum, colon, pancreas, hepatic artery and spleen, and dividing by the liver weight. Regional tissue vascular resistances were calculated from regional blood flows and arterial blood pressure, according to the equation: […]

xanthine oxidase = biological target: T2, xanthine oxidase (Rattus norvegicus, UniProt P22985); conditions: 10 nM, hypoxic perfused rat hearts; cited from earlier work
T2 construct: host or cells: isolated perfused rat heart
T2 sequence (P22985 whole entry, the tested form may be a part): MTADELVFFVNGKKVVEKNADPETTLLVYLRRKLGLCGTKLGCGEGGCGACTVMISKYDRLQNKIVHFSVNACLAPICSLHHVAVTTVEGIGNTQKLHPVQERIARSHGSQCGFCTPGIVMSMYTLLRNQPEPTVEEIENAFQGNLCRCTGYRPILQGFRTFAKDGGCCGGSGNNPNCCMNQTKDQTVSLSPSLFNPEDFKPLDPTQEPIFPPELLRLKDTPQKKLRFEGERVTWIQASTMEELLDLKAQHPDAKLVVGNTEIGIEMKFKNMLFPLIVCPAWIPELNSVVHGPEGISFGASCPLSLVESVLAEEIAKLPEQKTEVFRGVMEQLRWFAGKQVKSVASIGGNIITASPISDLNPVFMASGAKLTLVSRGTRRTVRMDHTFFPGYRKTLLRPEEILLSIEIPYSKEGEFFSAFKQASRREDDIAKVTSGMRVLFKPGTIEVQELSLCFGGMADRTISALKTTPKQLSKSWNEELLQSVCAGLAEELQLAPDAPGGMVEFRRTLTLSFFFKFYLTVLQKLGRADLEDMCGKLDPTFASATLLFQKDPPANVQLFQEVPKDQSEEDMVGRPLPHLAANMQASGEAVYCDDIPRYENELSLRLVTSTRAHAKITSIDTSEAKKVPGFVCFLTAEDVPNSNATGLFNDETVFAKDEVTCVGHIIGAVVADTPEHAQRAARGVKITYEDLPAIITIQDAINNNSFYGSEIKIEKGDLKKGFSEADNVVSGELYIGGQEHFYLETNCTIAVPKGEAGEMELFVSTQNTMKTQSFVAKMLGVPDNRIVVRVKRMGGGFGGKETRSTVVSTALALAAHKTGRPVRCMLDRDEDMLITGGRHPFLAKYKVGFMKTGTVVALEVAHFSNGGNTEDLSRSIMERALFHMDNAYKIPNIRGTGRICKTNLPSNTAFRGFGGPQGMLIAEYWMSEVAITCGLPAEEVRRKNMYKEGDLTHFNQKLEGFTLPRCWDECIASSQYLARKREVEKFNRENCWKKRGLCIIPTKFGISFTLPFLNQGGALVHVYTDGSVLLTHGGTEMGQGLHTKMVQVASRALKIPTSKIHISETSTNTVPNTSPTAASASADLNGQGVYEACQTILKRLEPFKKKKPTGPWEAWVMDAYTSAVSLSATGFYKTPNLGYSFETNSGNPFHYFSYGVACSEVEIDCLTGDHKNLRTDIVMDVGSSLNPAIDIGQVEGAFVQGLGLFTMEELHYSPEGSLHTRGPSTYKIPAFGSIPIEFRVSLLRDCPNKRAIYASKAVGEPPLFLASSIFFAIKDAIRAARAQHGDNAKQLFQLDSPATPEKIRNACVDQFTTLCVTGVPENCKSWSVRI

sTNFRI or p55 = assay: Circulating soluble TNF receptor I in fluid-resuscitated sepsis-induced SIRS; format: in vivo, rat; conditions: 24 hours after SIRS induction; 1 mg/kg pentostatin 2 hours after induction
Procedure: (§1) SIRS was induced secondary to sepsis by ip introduction of […] cecal matter in 5 ml/kg D5W.
(§2) It is increasingly apparent that feedback between pro and anti-inflammatory processes is critically important to the clinical outcome from SIRS, as taught by Bone (Bone, 1996). The balance between complementary pro-and anti-inflammatory molecules is typified by TNF α and its soluble receptors, sTNF types I and II. The ability of ADA inhibition to restore balance to these complimentary molecules in the SIRS responses was tested with a more clinically relevant addition of fluid resuscitated sepsis. […] Further evidence of a complex, modulatory mode of action is indicated by IL-10 concentrations in the liver and spleen.

septic rats [1] = assay: Survival of septic rats to day 3; format: in vivo, rat; conditions: pentostatin 5 mg/kg/12 h; 8-SPT 400 μg/kg/8 h; 3 days post-sepsis
Procedure: (§3) Studies were conducted to determine if manipulation of adenosine-mediated events would result in alterations in the TNF-α response in this model. At the time of sepsis induction, rats were treated in one of four ways. One group received only 0.9% normal saline as a vehicle control (No Rx; n=6). […] The third group received the adenosine deaminase inhibitor, erythro-9-(2-hydroxy-3-nonyl)adenine (EHNA; 1 μmole/kg+1 μmole/kg/hr; iv; n=3). A fourth group received the adenosine receptor antagonist 8-sulfophenyltheophylline (SPT; 400 μg/kg/8 hours; n=5).
(§4) Sepsis was induced under pentobarbital anesthesia (50 mg/kg) in each rat by intraperitoneal (ip) injection of 200 mg/kg rat cecal contents mixed as a slurry in 5% dextrose in water (D5W). […] Non-septic controls received an equivalent volume ip injection of D5W. Polyethylene catheters (Intramedic PE-50, Baxter) were inserted into the right internal jugular vein and right carotid artery. The jugular catheter was used for venous access (drug infusions; volume replacement, etc). The carotid catheter was used to obtain arterial blood samples, and to monitor arterial blood pressure and heart rate. […]
(§5) At the time of sepsis induction, rats were treated in one of three ways. […] Serum TNF-α (pg/ml) was determined at 4 and 24 hours after sepsis induction by ELISA.

septic rats [2] = assay: Blood pressure and heart rate in septic rats; conditions: chronic treatment
Procedure: as §3, §4, §5

SIRS rats = assay: Survival up to 6 days after SIRS induction secondary to sepsis (FIG. 15); format: in vivo, rat; conditions: 1 mg/kg
Procedure: All rats received 50 ml/kg 0.9% normal saline iv 2 hours after SIRS induction.
Inhibition of up to 100% can be maintained for no more than 3 consecutive days, after which ADA activity should be allowed to return to at least 50% of baseline values before another dose of the inhibitor can be given. […] One-two hours after administration of a starting dose of the inhibitor, adenosine deaminase activity can be measured in various bodily fluids, tissues, dialysates, or cells by spectrophotometric methods according to the method of Vielh and Castellazzi, or other appropriate measurement that provides information regarding ADA enzyme activity. Measurement of adenosine deaminase activity can also be used to monitor the return of ADA activity after therapeutic inhibition for the treatment or prevention of SIRS.

TNF-α [3] = assay: Serum TNF-α by ELISA in rats with chronic peritoneal sepsis (200 mg/kg cecal slurry ip); format: in vivo, rat; conditions: septic rats; for Effect on serum TNF-α response to sepsis at 4 hours / Effect on serum TNF-α response to sepsis at 24 hours: versus saline-treated septic group; for Serum TNF-α at 4 hours after sepsis induction / Serum TNF-α at 24 hours after sepsis induction: treated at time of sepsis induction
Procedure: as §3
Sepsis was induced under pentobarbital anesthesia (50 mg/kg) in each rat by intraperitoneal (ip) injection of 200 mg/kg rat cecal contents mixed as a slurry in 5% dextrose in water (D5W). […] Non-septic controls received an equivalent volume ip injection of D5W. Polyethylene catheters (Intramedic PE-50, Baxter) were inserted into the right internal jugular vein and right carotid artery. The jugular catheter was used for venous access (drug infusions; volume replacement, etc). The carotid catheter was used to obtain arterial blood samples, and to monitor arterial blood pressure and heart rate. The catheters were secured in their respective vessels, tunneled subcutaneously to exit in the interscapular region, and filled with heparinized saline (50 units/ml 0.9% normal saline). Incisions were closed in layers using 3-0 silk. Rats were allowed to recover from anesthetic and provided food and water ad libitum,
Serum and tissue tumor necrosis factor-α (TNF-α) concentrations were determined by enzyme-linked immunosorbant assay. Samples of serum, liver, and spleen were collected, rapidly weighed, and frozen in liquid nitrogen. On the day of assay, tissues are added to labeled tubes containing lysis buffer (volume=10 ml/gram wt. with 1:10 dilution) and kept on ice. The lysis buffer is 20 mM Tris (pH 7.4) containing […] phenylmethylsulfonylflouride (PMSF), […] leupeptin, 0.7 g/ml pepstatin, and 2.0 g/ml aprotinin to inhibit proteases. Samples were immediately homogenized using five 3 see bursts, washing grinding pistol (3×) between samples with phosphate buffered saline. Samples are then centrifuged for 20 min at 2200 RPM, 4° C. The supernatant was removed and used for TNF-α measurements. Briefly, each microplate well contained 50 μl of assay diluent. To each well, 50 μl of standard, control, or serum/homogenate supernatant sample were added and mixed on an orbital plate shaker. Plates were incubated at room temperature for 2 hours. Each well was then aspirated and washed with wash buffer 4 times. After final aspiration of wash buffer, 100 μl of rat TNF-α conjugate was added to each well. Wells were then covered and incubated for 2 hours at room temperature. At the end of the incubation, the aspiration/wash procedure was repeated 4 times, after which 100 μl of stabilized chromogen solution was added to each well. Next, plates were incubated for 45 minutes at room temperature in a dark area. After this final incubation period, 100 μl stopping solution was added to each well. Optical density of each well at […] was determined within 30 minutes using a Biotek Instruments EL312e microtiter plate reader. Concentrations of TNF-α were calculated from the standard curves.
At the time of sepsis induction, rats were treated in one of three ways. One group received only 0.9% normal saline as a vehicle control (VEH, n=6, where n is the number of rats). […] A third group received the adenosine receptor antagonist, 8-sulfophenyltheo-phylline (SPT; 400 μg/kg/8 h; n=5). Serum TNF-α (pg/ml) was determined at 4 and 24 hours after sepsis induction by ELISA.
Male SD rats (350-400 g) were made septic by IP introduction of a 200 mg/kg cecal slurry. […] TNF-α (pg/ml) was determined at 4 and 24 hours after sepsis induction by ELISA.

TNF-α [4] = assay: Serum TNF-α in fluid-resuscitated sepsis-induced SIRS; format: in vivo, rat; conditions: 24 hours after SIRS induction, 1 mg/kg pentostatin 2 hours after induction
Procedure: as §1, §2
Serum and tissue tumor necrosis factor-α (TNF-α) concentrations were determined by enzyme-linked immunosorbant assay. Samples of serum, liver, and spleen were collected, rapidly weighed, and frozen in liquid nitrogen. On the day of assay, tissues are added to labeled tubes containing lysis buffer (volume=10 ml/gram wt. with 1:10 dilution) and kept on ice. […] Optical density of each well at […] was determined within 30 minutes using a Biotek Instruments EL312e microtiter plate reader. Concentrations of TNF-α were calculated from the standard curves.

TNF-α, IL-1 beta, IL-10 = assay: Cytokine concentrations after ip E coli endotoxin (LPS), pentostatin dose response (FIG. 16); format: in vivo, rat; conditions: response to 2 mg/kg LPS (endotoxin), 2 hours after ip injection
Excerpt: Lower doses than this were unable to consistently suppress TNF-α and IL-1 beta with concommittant stimulation of the anti-inflammatory cytokine, IL-10.

IL-6 = assay: Serum IL-6 in fluid-resuscitated sepsis-induced SIRS; format: in vivo, rat; conditions: 24 hours after SIRS induction, 1 mg/kg pentostatin 2 hours after induction
Procedure: as §1, §2

[5] = tested on: lipid peroxidation (TBARS); assay: Thiobarbituric acid reactive substances (TBARS) in jejunum of septic rats; conditions: 24 hours, versus saline (No Rx)
sTNFRII or p75 = assay: Circulating soluble TNF receptor II in fluid-resuscitated sepsis-induced SIRS; format: in vivo, rat; conditions: 24 hours after SIRS induction; 1 mg/kg pentostatin 2 hours after induction
Procedure: as §1, §2

IL-10 = IL-10 in serum, liver and spleen in fluid-resuscitated SIRS; format: in vivo, rat; conditions: pentostatin treatment
Procedure: as §1, §2

septic rats [6] = assay: Capillary leakage: examination of peritoneal cavity and bowel of septic rats; format: in vivo, rat; conditions: for Volume of fluid in the peritoneal cavity: untreated 2-3 ml

Compound | Enzyme-inhibitory activity against adenosine deaminase (adenosine deaminase) | Brain (cerebral) vascular resistance (adenosine receptors) | Septic rats surviving to day 3 (septic rats [1]) | Blood pressures or heart rates versus saline-treated septic rats (septic rats [2]) | Effect on serum TNF-α response to sepsis at 4 hours (TNF-α [3]) | Effect on serum TNF-α response to sepsis at 24 hours (TNF-α [3]) | Serum TNF-α at 4 hours after sepsis induction (TNF-α [3]) | Serum TNF-α at 24 hours after sepsis induction (TNF-α [3]) | Capillary leakage (septic rats [6]) | Small bowel hemorrhage (septic rats [6]) | Volume of fluid in the peritoneal cavity (septic rats [6]) | further results
OCC1OC(n2cnc3c2N=CNCC3O)C(F)C1O (stereo not shown) [2′-deoxy-2′-fluorocoformycin] | high enzyme-inhibitory activities | – | – | – | – | – | – | – | – | – | – | –
Cn1c(=O)c2[nH]c(-c3ccccc3)nc2n(C)c1=O [8-PTH, 8-phenyltheophylline] | – | caused increases | – | – | – | – | – | – | – | – | – | Skeletal muscle vascular resistance (adenosine receptors): caused increases; Total hepato-splanchnic vascular resistance (adenosine receptors): caused increases
Oc1ncnc2[nH]ncc12 [Allopurinol] | – | – | – | – | – | – | – | – | – | – | – | Uric acid production (xanthine oxidase): below detectable levels
OC[C@H]1O[C@@H](n2cnc3c2NC=NC[C@H]3O)C[C@@H]1O [pentostatin, (R)-3-(2-deoxy-beta-D-erythropentofuranosyl)-3,6,7,8-tetrahydro-imidazo[4,5-d]-[1,3] diazepin-8-ol] | – | – | 4 of the 5 and 4 of 5 | neither the groups treated with pentostatin nor the groups treated with 8-SPT were blood pressures or heart rates significantly different | attenuation of this response | attenuation of this response | 592 ± 62 pg/mL | 671 ± 175 pg/mL | amelioration of capillary leakage | little to no evidence of small bowel hemorrhage | 0 to 1 mL | Circulating sTNFRI (p55) (sTNFRI or p55): 4624 ± 404 pg/mL; Mortality in SIRS model (SIRS rats): effective in reducing mortality; Serum TNF-α (TNF-α [4]): 20.3 ± 14.8 pg/mL; Dose with maximal effect on modulating cytokine concentrations (TNF-α, IL-1 beta, IL-10): 1 mg/kg; Serum IL-6 (IL-6): 5525 ± 1435 pg/mL; Jejunum tissue TBARS during sepsis [5]: diminution of tissue TBARS; Circulating sTNFRII (p75) (sTNFRII or p75): 16525 ± 1226 pg/mL; Serum concentrations of IL-10 (IL-10; FIG. 14(A)): unaffected; IL-10 concentrations in the liver and spleen (IL-10; FIG. 14(B) and 14(C)): elevated
OC[C@H]1O[C@@H](n2cnc3c2N=CNC[C@@H]3O)[C@H](F)[C@@H]1O [2′-deoxy-8-epi-2′-fluorocoformycin] | high enzyme-inhibitory activities | – | – | – | – | – | – | – | – | – | – | –
8-sulfophenyltheophylline [8-SPT] | – | exception of changes in cerebral vascular resistance | 2 of the 5 and 1 of 5 | neither the adenosine deaminase inhibition nor the 8-SPT groups were blood pressures or heart rates significantly different; also recorded: neither the groups treated with pentostatin nor the groups treated with 8-SPT were blood pressures or heart rates significantly different | not at 4 hours | amplified the response | 1167 ± 428 pg/mL | 2479 ± 875 pg/mL | exacerbation of capillary leakage | small bowel hemorrhaging was evident | 3 to 5 mL | –
